# Data published in ChEMBL document CHEMBL1649565, “Besifloxacin, a novel fluoroquinolone, has broad-spectrum in vitro activity against aerobic and anaerobic bacteria” (Antimicrob Agents Chemother, 2009).
# Activity calls are given as the source filed them. No cut-off for these calls is given here.
# Columns and labels:
# [1] = test system: Staphylococcus aureus; test: Antibacterial activity against ciprofloxacin-susceptible and methicillin-resistant Staphylococcus aureus by CLSI M100-S18 method; type: functional
# [2] = test system: Staphylococcus aureus; test: Antibacterial activity against non-ciprofloxacin-susceptible and methicillin-susceptible Staphylococcus aureus by CLSI M100-S18 method; type: functional
# [3] = test system: Staphylococcus epidermidis; test: Antibacterial activity against ciprofloxacin-susceptible and methicillin-resistant Staphylococcus epidermidis by CLSI M100-S18 method; type: functional
# [4] = test system: Staphylococcus epidermidis; test: Antibacterial activity against non-ciprofloxacin-susceptible and methicillin-susceptible Staphylococcus epidermidis by CLSI M100-S18 method; type: functional
# [5] = test system: Staphylococcus haemolyticus; test: Antibacterial activity against Staphylococcus haemolyticus by CLSI M100-S18 method; type: functional
# [6] = test system: Staphylococcus hominis; test: Antibacterial activity against Staphylococcus hominis by CLSI M100-S18 method; type: functional
# [7] = test system: Staphylococcus lugdunensis; test: Antibacterial activity against Staphylococcus lugdunensis by CLSI M100-S18 method; type: functional
# [8] = test system: Staphylococcus saprophyticus; test: Antibacterial activity against Staphylococcus saprophyticus by CLSI M100-S18 method; type: functional
# [9] = test system: Staphylococcus warneri; test: Antibacterial activity against Staphylococcus warneri by CLSI M100-S18 method; type: functional
# [10] = test system: Streptococcus agalactiae; test: Antibacterial activity against Streptococcus agalactiae by CLSI M100-S18 method; type: functional
# [11] = Antibacterial activity against Lancefield Streptococcus sp. 'group C' by CLSI M100-S18 method; type: functional
# [12] = test system: Streptococcus sp.; test: Antibacterial activity against Lancefield Streptococcus sp. group F by CLSI M100-S18 method; type: functional
# [13] = Antibacterial activity against Lancefield Streptococcus sp. 'group G' by CLSI M100-S18 method; type: functional
# [14] = test system: Streptococcus pyogenes; test: Antibacterial activity against Streptococcus pyogenes by CLSI M100-S18 method; type: functional
# [15] = test system: Streptococcus anginosus; test: Antibacterial activity against Streptococcus anginosus by CLSI M100-S18 method; type: functional
# [16] = test system: Streptococcus equinus; test: Antibacterial activity against Streptococcus bovis by CLSI M100-S18 method; type: functional
# [17] = test system: Streptococcus constellatus; test: Antibacterial activity against Streptococcus constellatus by CLSI M100-S18 method; type: functional
# [18] = test system: Streptococcus intermedius; test: Antibacterial activity against Streptococcus intermedius by CLSI M100-S18 method; type: functional
# [19] = test system: Streptococcus mitis; test: Antibacterial activity against Streptococcus mitis by CLSI M100-S18 method; type: functional
# [20] = test system: Streptococcus oralis; test: Antibacterial activity against Streptococcus oralis by CLSI M100-S18 method; type: functional
# [21] = test system: Streptococcus salivarius; test: Antibacterial activity against Streptococcus salivarius by CLSI M100-S18 method; type: functional
# [22] = test system: Streptococcus sanguinis; test: Antibacterial activity against Streptococcus sanguinis by CLSI M100-S18 method; type: functional
# [23] = test system: Citrobacter koseri; test: Antibacterial activity against Citrobacter koseri by CLSI M7-A7 method; type: functional
# [24] = test system: Klebsiella oxytoca; test: Antibacterial activity against Klebsiella oxytoca by CLSI M7-A7 method; type: functional
# [25] = test system: Legionella pneumophila; test: Antibacterial activity against Legionella pneumophila by CLSI M7-A7 method; type: functional
# [26] = test system: Moraxella catarrhalis; test: Antibacterial activity against Moraxella catarrhalis by CLSI M7-A7 method; type: functional
# [27] = test system: Morganella morganii; test: Antibacterial activity against Morganella morganii by CLSI M7-A7 method; type: functional
# [28] = test system: Bacteroides fragilis; test: Antibacterial activity against Bacteroides fragilis by CLSI M11-A7 method; type: functional
# [29] = test system: Clostridium perfringens; test: Antibacterial activity against Clostridium perfringens by CLSI M11-A7 method; type: functional
# [30] = test system: Fusobacterium sp.; test: Antibacterial activity against Fusobacterium sp. by CLSI M11-A7 method; type: functional
# [31] = test system: Peptostreptococcus sp.; test: Antibacterial activity against Peptostreptococcus sp. by CLSI M11-A7 method; type: functional
# [32] = test system: Prevotella sp.; test: Antibacterial activity against Prevotella sp. by CLSI M11-A7 method; type: functional
# [33] = test system: Cutibacterium acnes; test: Antibacterial activity against Propionibacterium acnes by CLSI M11-A7 method; type: functional
# [34] = test system: Bacteroides fragilis; test: Antibacterial activity against Bacteroides fragilis assessed as percent susceptible isolates by CLSI M11-A7 method; type: functional
# [35] = test system: Fusobacterium sp.; test: Antibacterial activity against Fusobacterium sp. assessed as percent susceptible isolates by CLSI M11-A7 method; type: functional
# [36] = test system: Peptostreptococcus sp.; test: Antibacterial activity against Peptostreptococcus sp. assessed as percent susceptible isolates by CLSI M11-A7 method; type: functional
# [37] = test system: Prevotella sp.; test: Antibacterial activity against Prevotella sp. assessed as percent susceptible isolates by CLSI M11-A7 method; type: functional
# [38] = test system: Cutibacterium acnes; test: Antibacterial activity against Propionibacterium acnes assessed as percent susceptible isolates by CLSI M11-A7 method; type: functional
# [39] = test system: Staphylococcus aureus; test: Antibacterial activity against ciprofloxacin-susceptible and methicillin-resistant Staphylococcus aureus assessed as percent susceptible isolates by CLSI M100-S18 method; type: functional
# [40] = test system: Staphylococcus aureus; test: Antibacterial activity against non-ciprofloxacin-susceptible and methicillin-susceptible Staphylococcus aureus assessed as percent susceptible isolates by CLSI M100-S18 method; type: functional
# [41] = test system: Staphylococcus epidermidis; test: Antibacterial activity against ciprofloxacin-susceptible and methicillin-resistant Staphylococcus epidermidis assessed as percent susceptible isolates by CLSI M100-S18 method; type: functional
# [42] = test system: Staphylococcus epidermidis; test: Antibacterial activity against non-ciprofloxacin-susceptible and methicillin-susceptible Staphylococcus epidermidis assessed as percent susceptible isolates by CLSI M100-S18 method; type: functional
# [43] = test system: Staphylococcus haemolyticus; test: Antibacterial activity against Staphylococcus haemolyticus assessed as percent susceptible isolates by CLSI M100-S18 method; type: functional
# [44] = test system: Staphylococcus hominis; test: Antibacterial activity against Staphylococcus hominis assessed as percent susceptible isolates by CLSI M100-S18 method; type: functional
# [45] = test system: Staphylococcus lugdunensis; test: Antibacterial activity against Staphylococcus lugdunensis assessed as percent susceptible isolates by CLSI M100-S18 method; type: functional
# [46] = test system: Staphylococcus saprophyticus; test: Antibacterial activity against Staphylococcus saprophyticus assessed as percent susceptible isolates by CLSI M100-S18 method; type: functional
# [47] = test system: Staphylococcus warneri; test: Antibacterial activity against Staphylococcus warneri assessed as percent susceptible isolates by CLSI M100-S18 method; type: functional
# [48] = test system: Streptococcus agalactiae; test: Antibacterial activity against Streptococcus agalactiae assessed as percent susceptible isolates by CLSI M100-S18 method; type: functional
# [49] = Antibacterial activity against Lancefield Streptococcus sp. 'group C' assessed as percent susceptible isolates by CLSI M100-S18 method; type: functional
# [50] = test system: Streptococcus sp.; test: Antibacterial activity against Lancefield Streptococcus sp. group F assessed as percent susceptible isolates by CLSI M100-S18 method; type: functional
# [51] = Antibacterial activity against Lancefield Streptococcus sp. 'group G' assessed as percent susceptible isolates by CLSI M100-S18 method; type: functional
# [52] = test system: Streptococcus pyogenes; test: Antibacterial activity against Streptococcus pyogenes assessed as percent susceptible isolates by CLSI M100-S18 method; type: functional
# [53] = test system: Citrobacter koseri; test: Antibacterial activity against Citrobacter koseri assessed as percent susceptible isolates by CLSI M7-A7 method; type: functional
# [54] = test system: Klebsiella oxytoca; test: Antibacterial activity against Klebsiella oxytoca assessed as percent susceptible isolates by CLSI M7-A7 method; type: functional
# [55] = test system: Morganella morganii; test: Antibacterial activity against Morganella morganii assessed as percent susceptible isolates by CLSI M7-A7 method; type: functional
# [56] = test system: Staphylococcus epidermidis
# [57] = test system: Staphylococcus epidermidis; remark: listed apart in the source
# [58] = test system: Clostridium perfringens
smiles,measurement,setting,value
COc1c(N2CCNC(C)C2)c(F)cc2c(=O)c(C(=O)O)cn(C3CC3)c12 (stereo not given) [GATIFLOXACIN],MIC50,[1],0.06 µg/mL
same,MIC90,[1],0.25 µg/mL
same,MIC50,[2],4 µg/mL
same,MIC90,[2],> 8 µg/mL
same,MIC,[3],0.06 µg/mL
same,MIC50,[3],0.06 µg/mL
same,MIC,[4],1 µg/mL
same,MIC50,[4],1 µg/mL
same,MIC50,[5],2 µg/mL
same,MIC90,[5],8 µg/mL
same,MIC50,[6],1 µg/mL
same,MIC90,[6],4 µg/mL
same,MIC50,[7],0.12 µg/mL
same,MIC90,[7],2 µg/mL
same,MIC50,[8],0.12 µg/mL
same,MIC90,[8],0.25 µg/mL
same,MIC50,[9],0.12 µg/mL
same,MIC90,[9],4 µg/mL
same,MIC50,[10],0.03 µg/mL
same,MIC90,[10],0.06 µg/mL
same,MIC,[11],≤ 0.015 µg/mL
same,MIC50,[11],≤ 0.015 µg/mL
same,MIC90,[11],0.06 µg/mL
same,MIC,[12],≤ 0.015 µg/mL
same,MIC50,[12],≤ 0.015 µg/mL
same,MIC90,[12],0.06 µg/mL
same,MIC,[13],≤ 0.015 µg/mL
same,MIC50,[13],≤ 0.015 µg/mL
same,MIC90,[13],0.06 µg/mL
same,MIC50,[14],0.12 µg/mL
same,MIC90,[14],0.25 µg/mL
same,MIC50,[15],0.25 µg/mL
same,MIC90,[15],0.5 µg/mL
same,MIC50,[16],0.06 µg/mL
same,MIC90,[16],1 µg/mL
same,MIC50,[17],0.06 µg/mL
same,MIC90,[17],1 µg/mL
same,MIC50,[18],0.06 µg/mL
same,MIC90,[18],1 µg/mL
same,MIC50,[19],0.06 µg/mL
same,MIC90,[19],1 µg/mL
same,MIC50,[20],0.06 µg/mL
same,MIC90,[20],1 µg/mL
same,MIC50,[21],0.06 µg/mL
same,MIC90,[21],1 µg/mL
same,MIC50,[22],0.06 µg/mL
same,MIC90,[22],1 µg/mL
same,MIC50,[23],0.015 µg/mL
same,MIC90,[23],0.12 µg/mL
same,MIC50,[24],0.03 µg/mL
same,MIC90,[24],0.5 µg/mL
same,MIC50,[25],1 µg/mL
same,MIC90,[25],2 µg/mL
same,MIC50,[26],0.25 µg/mL
same,MIC90,[26],0.25 µg/mL
same,MIC50,[27],0.12 µg/mL
same,MIC90,[27],> 8 µg/mL
same,MIC50,[28],2 µg/mL
same,MIC90,[28],4 µg/mL
same,MIC50,[29],1 µg/mL
same,MIC90,[29],1 µg/mL
same,MIC50,[30],1 µg/mL
same,MIC90,[30],4 µg/mL
same,MIC50,[31],2 µg/mL
same,MIC90,[31],4 µg/mL
same,MIC50,[32],8 µg/mL
same,MIC90,[32],16 µg/mL
same,MIC,[33],0.25 µg/mL
same,MIC50,[33],0.25 µg/mL
same,MIC90,[33],0.5 µg/mL
same,Activity,[34],inactive
same,Activity,[35],inactive
same,Activity,[36],inactive
same,Activity,[37],inactive
same,Activity,[38],inactive
same,Activity,[39],94.7%
same,Activity,[40],54.5%
same,Activity,[41],88.9%
same,Activity,[42],83.3%
same,Activity,[43],64.4%
same,Activity,[44],32%
same,Activity,[45],60%
same,Activity,[46],99%
same,Activity,[47],86%
same,Activity,[48],100%
same,Activity,[49],100%
same,Activity,[50],100%
same,Activity,[51],100%
same,Activity,[52],<=0.015%
same,Activity,[53],99%
same,Activity,[54],96%
same,Activity,[55],90.2%
same,MIC90,[56],inactive
same,MIC90,[57],inactive
same,Activity,[58],inactive
